In assay [1] the test system is NMDA receptor. The assay can be described thus: Inhibition of NMDA/glycine-induced increases in intracellular calcium in cultured rat cerebellar granule cells (RCGC). The class given is cell-based. Background: A change in cytosolic calcium serves as a functional read-out for many receptors and channels.
In assay [2] the target is NMDA receptor-ionophore complex (site labeled by [3H]MK-801). The assay can be described thus: Inhibition of [3H]MK-801 binding in rat cortical/hippocampal washed membrane preparations. The settings on record: for IC50: read-out: IC50 (μM) vs. [3H]MK-801, rat cortical/hippocampal washed membranes.
[3] abbreviates: NMDA/glycine-induced increases in intracellular calcium, cultured rat cerebellar granule cells; read-out: IC50 (μM) vs. NMDA.

As usually defined, the IC50 is the concentration needed to halve the response being measured.

The structures appear in SMILES notation. Where “and” joins values, the source holds several entries; their conditions need not be identical. Equal values may be shown once. Where a name gives a salt, the structure may show the parent alone. Read-outs that look alike come from different tables or passages of the source. Marks after values point to notes of the source that are not given here.

Turning to `NCC=C(c1ccccc1)c1cccc(F)c1` (racemic) [Compound 107, 3-(3-fluorophenyl)-3-phenyl-prop-2-ene-1-amine], the IC50 in assay [1] (setting [3]) amounted to 2.67 µM; in assay [2], 3.83 µM.

Consider `CCC(NCCC(c1ccccc1)c1ccccc1)c1ccccc1OC` (racemic) [Compound 167, (R,S)-N-1-(2-methoxyphenylpropyl)-3,3-diphenylpropylamine], for which the IC50 in assay [1] (setting [3]) amounted to 0.08 µM; in assay [2] it was 14.5 µM.

On to `COc1ccc(C(CCN)c2cccc(F)c2)cc1F` (racemic) [Compound 173, (R,S)-3-(3-Fluoro-4-methoxy)-3-(3-fluorophenyl)propylamine maleate], for which the IC50 in assay [1] (setting [3]) stood at 22.9 µM; in assay [2], 24.1 µM.

In the case of `CNCCC(c1cccc(F)c1)c1ccc(OC)c(F)c1` (racemic) [Compound 174, (R,S)-N-Methyl-3-(3-fluoro-4-methoxy)-3-(3-fluorophenyl)propyl amine maleate], in assay [2], the IC50 was 57 µM.

`NCC[C@H](c1cccc(F)c1)c1ccc(O)c(F)c1` (racemic) [Compound 175, (R,S)-3-(3-Fluoro-4-hydroxy)-3-(3-fluorophenyl)propylamine maleate]: in assay [2], the IC50 worked out at 5.1 µM.

On to `CNCCC(c1cccc(F)c1)c1ccc(O)c(F)c1` (racemic) [Compound 176, (R,S)-N-Methyl-3-(3-fluoro-4-hydroxy)-3-(3-fluorophenyl)propyl amine hydrochloride], for which the IC50 in assay [2] came out at 10 µM.

As to `NCC(c1ccccc1)c1ccccc1` [2,2-diphenylethylamine, reference compound], the IC50 in assay [1] (setting [3]) amounted to 24.5 µM.

On to `C[C@@H](NCCC(c1ccccc1)c1ccccc1)c1ccccc1` [(R)-fendiline, reference compound], for which the IC50 in assay [1] (setting [3]) came out at 0.719 µM.

For `C[C@H](NCCC(c1ccccc1)c1ccccc1)c1ccccc1` [(S)-fendiline, reference compound], the IC50 in assay [1] (setting [3]) worked out at 0.686 µM.

For the molecule `CN(C)CCC=C1c2ccccc2CCc2ccccc21` [Amitriptyline, reference compound], the IC50 in assay [2] came out at 14.2 µM.

On to `COc1ccc(C(CC(C)N)c2ccccc2)cc1` (stereo not shown) [Astra compound, reference compound], for which the IC50 in assay [1] (setting [3]) was > 30 µM.

On to `CN(C)CCCN1c2ccccc2Sc2ccc(Cl)cc21` [Chlorpromazine, reference compound], for which, in assay [2], the IC50 came out at 11.2 µM.

Regarding `COc1ccccc1CC(=O)NC(CC(N)=O)C(=O)NCCCCCNCCCNCCCNC(=O)C(N)CCCNC(=N)N` (stereo not shown) [Compound 5], the results for the IC50 in assay [1] (setting [3]), in assay [1] (TFA salt; read-out: IC50 (μM) vs. NMDA) and in assay [2] were 0.102 µM, 0.07 µM and 15.2 µM, respectively.

Consider `COc1ccccc1CC(=O)NC(Cc1ccccc1)C(=O)NCCCCCNCCCNCCCNC(=O)C(N)CCCNC(=N)N` (stereo not shown) [Compound 6], for which the figures for the IC50 in assay [1] (setting [3]) and in assay [2] were 0.129 µM and > 100 µM, respectively. In assay [2] (at 100 μM), the “% inhibition of [3H]MK-801 binding at the stated concentration (IC50 study incomplete)” value was “(0% at 100 μM)^d”.

As for `COc1ccccc1CC(=O)NC(CC(C)C)C(=O)NCCCCCNCCCNCCCNC(=O)C(N)CCCNC(=N)N` (stereo not shown) [Compound 7], the IC50 in assay [1] (setting [3]) is 0.163 µM; in assay [2], 129 µM.

Consider `COc1ccccc1CC(=O)NC(CC(N)=O)C(=O)NCCCCCNCCCNCCCNC(=O)C(N)CCCCN` (stereo not shown) [Compound 8], for which the IC50 in assay [1] (setting [3]) stood at 0.099 µM; in assay [2], 219 µM.

As for `N=C(N)NCCCC(N)C(=O)NCCCNCCCNCCCCCNC(=O)C(CC(N)=O)NC(=O)Cc1ccccc1O` (stereo not shown) [Compound 10], the IC50 in assay [1] (setting [3]) worked out at 0.082 µM. In addition, the “% inhibition of [3H]MK-801 binding at the stated concentration (IC50 study incomplete)” value in assay [2] (at 80 μM) was “(57% at 80 μM)^d”.

`NCCCOCCCCOCCCNC(=O)Cc1cc(Br)ccc1O` [Compound 15]: the IC50 in assay [1] (setting [3]) is 4.9 µM.

Take `NCCCOCCCCOCCCNC(=O)Cc1c[nH]c2ccc(Br)cc12` [Compound 16]: the IC50 in assay [1] (setting [3]) was 5.1 µM; in assay [2] it was 28.8 µM.

In the case of `NCCCOCCCCOCCCNC(=O)Cc1ccc2ccccc2c1` [Compound 17], the IC50 in assay [1] (setting [3]) is 9.6 µM; in assay [2], 36.3 µM.

With `COc1ccccc1CC(=O)NCCCOCCCCOCCCN` [Compound 18], the IC50 in assay [1] (setting [3]) is 5.1 µM; in assay [2], 34 µM.

Take `CCC(N)CC(c1cccc(F)c1)c1cccc(F)c1` (stereo not shown) [Compound 23, 3,3-bis(3-fluorophenyl)-1-ethyl-1-propylamine]: the figures for the IC50 in assay [1] (setting [3]) and in assay [2] were 0.267 µM and 5.4 µM, respectively.

For the molecule `CCNCCC(c1ccccc1)c1ccccc1` [Compound 68, N-ethyl-3,3-diphenylpropylamine], the IC50 in assay [1] (setting [3]) was determined as 2.9 µM.

Regarding `NCCCC(c1ccccc1)c1ccccc1` [Compound 70, 4,4-diphenylbutylamine], the IC50 in assay [1] (setting [3]) stood at 1.7 µM.

`NCCCCC(c1ccccc1)c1ccccc1` [Compound 71, 5,5-diphenylpentylamine]: the IC50 in assay [1] (setting [3]) was 6.35 µM and 6.4 µM.

On to `CC(C)NCCC(c1ccccc1)c1ccccc1` [Compound 72, N-isopropyl-3,3-diphenylpropylamine], for which the IC50 in assay [1] (setting [3]) was found to be 7.4 µM.

As to `CN(C)CCC(c1ccccc1)c1ccccc1` [Compound 73, N,N-dimethyl-3,3-diphenylpropylamine], in assay [1] (setting [3]), the IC50 turned out to be 12.6 µM.

Take `CCN(CC)CCC(c1ccccc1)c1ccccc1` [Compound 74, N,N-diethyl-3,3-diphenylpropylamine]: the IC50 in assay [1] (setting [3]) was 27.5 µM.

For `NCCC(c1ccccc1)C1CCCCC1` (stereo not shown) [Compound 75], the IC50 in assay [1] (setting [3]) was 0.94 µM.

`NCCC(c1ccc(F)cc1)c1ccccc1F` (stereo not shown) [Compound 76, 3-(2-fluorophenyl)-3-(4-fluorophenyl)-1-propylamine]: the IC50 in assay [1] (setting [3]) was 0.73 µM.

On to `NCCC(c1ccc(F)cc1)c1ccc(F)cc1` [Compound 77, 3,3-bis(4-fluorophenyl)-1-propylamine], for which, in assay [1] (setting [3]), the IC50 is 5.5 µM.

With `NCCC(c1cccc(C(F)(F)F)c1)c1cccc(C(F)(F)F)c1` [Compound 78, 3,3-bis[3-(trifluoromethyl)phenyl]-1-propylamine], the IC50 in assay [1] (read-out: IC50 (μM) vs. NMDA; NMDA/glycine-induced increases in intracellular calcium, cultured rat cerebellar granule cells) came to 10.2 µM.

Take `COc1cccc(C(=CCN)c2cccc(OC)c2)c1` [Compound 116, 3,3-bis(3-methoxyphenyl)-prop-2-ene-1-amine]: the IC50 in assay [1] (setting [3]) is 3.6 µM and 4.47 µM.

In the case of `NCCc1ccccc1Cc1ccccc1F` [Compound 129], in assay [1] (setting [3]), the IC50 worked out at 1.26 µM.

As for `NCCc1ccccc1Cc1cccc(F)c1` [Compound 130], the IC50 in assay [1] (setting [3]) was 0.851 µM.

Turning to `NCCc1ccccc1Cc1ccc(F)cc1` [Compound 131], the IC50 in assay [1] (setting [3]) is 1.23 µM.

With `COc1cccc(/C(=C\CN)c2cccc(Cl)c2)c1` [Compound 143], in assay [1] (setting [3]), the IC50 came out at 2.82 µM.

For `Cc1ccccc1OC(CCN)c1ccccc1` (stereo not shown) [Compound 177], the IC50 in assay [2] came out at 0.754 µM.

With `COc1ccccc1OC(CCN)c1ccccc1` (stereo not shown) [Compound 178], in assay [2], the IC50 stood at 1.25 µM.

Take `NCCC1c2cccc(F)c2CCc2c(F)cccc21` [Compound 193]: the “activity vs. [3H]MK-801 binding” value in assay [2] (@ 1 μM) is “inactive @ 1 μM”.

As for `NCCC1c2cc(F)ccc2CCc2c(F)cccc21` (stereo not shown) [Compound 194], the IC50 in assay [2] turned out to be 0.371 µM.

For `NCCC1c2cc(F)ccc2CCc2ccc(F)cc21` [Compound 195, 3,7-Difluoro-10,11-dihydro-5-(2-aminoethyl)-5H-dibenzo[a,d]cycloheptene hydrochloride], the IC50 in assay [2] was found to be 0.029 µM.

Take `NCCC1c2ccccc2CCc2c(F)cccc21` (stereo not shown) [Compound 196]: in assay [2], the IC50 amounted to 2.24 µM.

As for `NCCC1c2ccccc2CCc2ccc(F)cc21` (stereo not shown) [Compound 197, 3-Fluoro-10,11-dihydro-5-(2-aminoethyl)-5H-dibenzo[a,d]cycloheptene hydrochloride], in assay [2], the IC50 came out at 0.053 µM.

As to `CN(C)CCC=C1c2ccccc2C=Cc2ccccc21` [Cyclobenzaprine, reference compound], the IC50 in assay [2] is 14.5 µM.

On to `CN(C)CCCN1c2ccccc2CCc2ccccc21` [Imipramine, reference compound], for which the IC50 in assay [2] was 6.75 µM.

Take `CN(C)CCC(Oc1ccc2c(c1)CCCC2)c1ccc(C#N)cc1` (stereo not shown) [Novo-Nordisk compound^d, reference compound]: the IC50 in assay [1] (setting [3]) stood at 28.8 µM.

`CN(C)CCC(c1ccc(Br)cc1)c1ccccn1` (stereo not shown) [brompheniramine, reference compound]: in assay [1] (setting [3]), the IC50 stood at 138 µM.

As to `CN1CCN(C(c2ccccc2)c2ccc(Cl)cc2)CC1` (stereo not shown) [chlorcyclizine, reference compound], the IC50 in assay [1] (setting [3]) was ~10 µM.

In the case of `CN(C)CCN(Cc1ccc(Cl)cc1)c1ccccn1` [chloropyramine, reference compound], the IC50 in assay [1] (setting [3]) turned out to be 76 µM.

Take `CN(C)CCC(c1ccc(Cl)cc1)c1ccccn1` (stereo not shown) [chlorpheniramine, reference compound]: in assay [1] (setting [3]), the IC50 was > 100 µM.

With `CN1CCN(C(c2ccccc2)c2ccccc2)CC1` [cyclizine, reference compound], in assay [1] (setting [3]), the IC50 was 28 µM.

For `CNCCCN1c2ccccc2CCc2ccccc21` [desipramine, reference compound], the IC50 in assay [2] came to 3.26 µM.

Consider `CC(C)N(CCC(C(N)=O)(c1ccccc1)c1ccccn1)C(C)C` (stereo not shown) [disopyramide, reference compound], for which the IC50 in assay [1] (setting [3]) was > 100 µM.

On to `CN(C)CCOC(C)(c1ccccc1)c1ccccn1` (stereo not shown) [doxylamine, reference compound], for which the IC50 in assay [1] (setting [3]) worked out at 62 µM.

Regarding `CC(C)[N+](C)(CCC(C(N)=O)(c1ccccc1)c1ccccc1)C(C)C` [isopropamide, reference compound], the IC50 in assay [1] (setting [3]) is 87 µM.

In the case of `Cc1cccc(C)c1NC(=O)CN1CCN(CCCC(c2ccc(F)cc2)c2ccc(F)cc2)CC1` [lidoflazine, reference compound], in assay [1] (setting [3]), the IC50 is > 30 µM.

As to `CN(C)CCC(c1ccccc1)c1ccccn1` (stereo not shown) [pheniramine, reference compound], the IC50 in assay [1] (setting [3]) stood at 22 µM.

Turning to `O=c1[nH]c2ccccc2n1C1CCN(CCCC(c2ccc(F)cc2)c2ccc(F)cc2)CC1` [pimozide, reference compound], the IC50 in assay [1] (setting [3]) was > 10 µM.

`OC(CCN1CCCCC1)(c1ccccc1)c1ccccc1` [pridinol, reference compound]: in assay [1] (setting [3]), the half-inhibitory concentration (IC50) was found to be 10.7 µM.

Consider `OC(CCN1CCCCC1)(c1ccccc1)C1CCCCC1` (stereo not shown) [trihexyphenidyl, reference compound], for which, in assay [1] (setting [3]), the IC50 worked out at 5.13 µM.

Take `CN(C)C/C=C(/c1ccc(Br)cc1)c1cccnc1` [zimeldine, reference compound]: in assay [1] (setting [3]), the IC50 was ≥ 26 µM.

For the origin of these results see patent US6750244B2, “Compounds active at a novel site on receptor-operated calcium channels useful for treatment of neurological disorders and diseases” (NPS Pharmaceuticals, Inc., priority 1993, dated 2004).
